23 sequences from patent US20070128217A1 (priority 2003, published 2007) can be followed below.

Assay [1] relates to rabbit serum obtained by immunizing a rabbit with the SARS-CoV strain Frankfurt 1. The format is binding. Further details: Binding of a rabbit serum to linear peptides / Binding of a rabbit serum to looped peptides / Rabbit serum linear peptides / Rabbit serum looped peptides / Binding of a rabbit serum to linear peptides of protein N of SARS-CoV Urbani (Rabbit serum linear peptides) / Binding of a rabbit serum to looped/cyclic peptides of protein N of SARS-CoV Urbani (Rabbit serum looped peptides): unit not given here.

Assay [2] relates to control sera (pooled serum of ten healthy LUMC hospital workers; commercial negative donor pooled serum from the Dutch bloodbank). Format: binding, human. Further details: Binding of Control serum LUMC to linear peptides / Binding of Control serum Blood-bank to linear peptides / Binding of Control serum LUMC to looped peptides / Binding of Control Serum Blood-Bank to Looped peptides / Binding of Control serum LUMC to linear peptides of the protein M of SARS-CoV Urbani / Binding of Control serum Blood-bank to linear peptides of the protein M of SARS-CoV Urbani / Binding of Control serum LUMC to looped peptides of the protein M of SARS-CoV Urbani / Binding of Control Serum Blood-Bank to Looped peptides of the protein M of SARS-CoV Urbani: unit not given here.

Take KKNYSELDDEEPMEL: in assay [1], the “Rabbit serum linear peptides” value was determined as 0.1 and the “Rabbit serum looped peptides” value was determined as 0.0. Also, in assay [2], the “Binding of Control Serum Blood-Bank to Looped peptides of the protein X3 of SARS-CoV Urbani” value is 0.6, the “Binding of Control serum Blood-bank to linear peptides of the protein X3 of SARS-CoV Urbani” value is 0.5, the “Binding of Control serum LUMC to linear peptides of the protein X3 of SARS-CoV Urbani” value worked out at 0.4 and the “Binding of Control serum LUMC to looped peptides of the protein X3 of SARS-CoV Urbani” value was 0.9.
On to KLGASQRVGTDSGFA, for which, in assay [1], the “Rabbit serum linear peptides” value came out at 0.1 and the “Rabbit serum looped peptides” value came out at 0.1. In addition, in assay [2], the “Binding of Control Serum Blood-Bank to Looped peptides of the protein M of SARS-CoV Urbani” value worked out at 0.8, the “Binding of Control serum Blood-bank to linear peptides of the protein M of SARS-CoV Urbani” value stood at 0.9, the “Binding of Control serum LUMC to linear peptides of the protein M of SARS-CoV Urbani” value came to 0.9 and the “Binding of Control serum LUMC to looped peptides of the protein M of SARS-CoV Urbani” value is reported as 0.9.
As to KLVVILRIGTQVLKT, in assay [1], the “Binding of a rabbit serum to linear peptides” value turned out to be 0.5 and the “Binding of a rabbit serum to looped peptides” value is 0.5. Also, in assay [2], the “Binding of Control Serum Blood-Bank to Looped peptides” value worked out at 0.7, the “Binding of Control serum Blood-bank to linear peptides” value worked out at 0.8, the “Binding of Control serum LUMC to linear peptides” value turned out to be 0.4 and the “Binding of Control serum LUMC to looped peptides” value was 0.6.
With LADNKFALTCTSTHF, in assay [1], the “Rabbit serum linear peptides” value came out at 0.5 and the “Rabbit serum looped peptides” value is given as 0.5. For the same sequence, in assay [2], the “Binding of Control Serum Blood-Bank to Looped peptides” value came to 0.7, the “Binding of Control serum Blood-bank to linear peptides” value is recorded as 0.7, the “Binding of Control serum LUMC to linear peptides” value came to 0.7 and the “Binding of Control serum LUMC to looped peptides” value is 0.7.
On to LFKPLTKKNYSELDD, for which, in assay [1], the “Rabbit serum linear peptides” value worked out at 0.3 and the “Rabbit serum looped peptides” value is 0.4. Besides, in assay [2], the “Binding of Control Serum Blood-Bank to Looped peptides of the protein X3 of SARS-CoV Urbani” value turned out to be 0.8, the “Binding of Control serum Blood-bank to linear peptides of the protein X3 of SARS-CoV Urbani” value is on record as 0.7, the “Binding of Control serum LUMC to linear peptides of the protein X3 of SARS-CoV Urbani” value came out at 0.6 and the “Binding of Control serum LUMC to looped peptides of the protein X3 of SARS-CoV Urbani” value is 0.9.
For LGASQRVGTDSGFAA, in assay [1], the “Rabbit serum linear peptides” value worked out at 0.3 and the “Rabbit serum looped peptides” value was found to be 0.1. In assay [2], the “Binding of Control Serum Blood-Bank to Looped peptides of the protein M of SARS-CoV Urbani” value is reported as 0.6, the “Binding of Control serum Blood-bank to linear peptides of the protein M of SARS-CoV Urbani” value is listed as 0.9, the “Binding of Control serum LUMC to linear peptides of the protein M of SARS-CoV Urbani” value was determined as 0.5 and the “Binding of Control serum LUMC to looped peptides of the protein M of SARS-CoV Urbani” value is listed as 0.8.
With LGSITAQPVKIDNAS, in assay [1], the “Binding of a rabbit serum to linear peptides” value amounted to 0.3 and the “Binding of a rabbit serum to looped peptides” value is 0.4. In addition, in assay [2], the “Binding of Control Serum Blood-Bank to Looped peptides” value was 0.4, the “Binding of Control serum Blood-bank to linear peptides” value is recorded as 0.4, the “Binding of Control serum LUMC to linear peptides” value was 0.5 and the “Binding of Control serum LUMC to looped peptides” value was 0.4.
LKEDYQIGGYSEDRH: in assay [1], the “Binding of a rabbit serum to linear peptides” value stood at 0.1 and the “Binding of a rabbit serum to looped peptides” value was 0.7. In addition, in assay [2], the “Binding of Control Serum Blood-Bank to Looped peptides” value came out at 0.4, the “Binding of Control serum Blood-bank to linear peptides” value came out at 0.5, the “Binding of Control serum LUMC to linear peptides” value stood at 0.5 and the “Binding of Control serum LUMC to looped peptides” value is given as 0.5.
LNTDHAGSNDNIALL: in assay [1], the “Rabbit serum linear peptides” value came out at 0.0 and the “Rabbit serum looped peptides” value came to 0.3. In addition, in assay [2], the “Binding of Control Serum Blood-Bank to Looped peptides of the protein M of SARS-CoV Urbani” value is listed as 0.7, the “Binding of Control serum Blood-bank to linear peptides of the protein M of SARS-CoV Urbani” value turned out to be 0.6, the “Binding of Control serum LUMC to linear peptides of the protein M of SARS-CoV Urbani” value is 0.7 and the “Binding of Control serum LUMC to looped peptides of the protein M of SARS-CoV Urbani” value is given as 0.9.
LRIGTQVLKTMSLYM: in assay [1], the “Binding of a rabbit serum to linear peptides” value is 0.4 and the “Binding of a rabbit serum to looped peptides” value was determined as 0.4. In addition, in assay [2], the “Binding of Control Serum Blood-Bank to Looped peptides” value is given as 0.7, the “Binding of Control serum Blood-bank to linear peptides” value worked out at 0.6, the “Binding of Control serum LUMC to linear peptides” value worked out at 0.4 and the “Binding of Control serum LUMC to looped peptides” value is reported as 0.7.
As to LRMAGHPLGRCDIKD, in assay [1], the “Rabbit serum linear peptides” value turned out to be 0.3 and the “Rabbit serum looped peptides” value was 0.1. Further, in assay [2], the “Binding of Control Serum Blood-Bank to Looped peptides of the protein M of SARS-CoV Urbani” value came out at 0.8, the “Binding of Control serum Blood-bank to linear peptides of the protein M of SARS-CoV Urbani” value came to 0.7, the “Binding of Control serum LUMC to linear peptides of the protein M of SARS-CoV Urbani” value is recorded as 0.5 and the “Binding of Control serum LUMC to looped peptides of the protein M of SARS-CoV Urbani” value was 0.8.
On to LSYYKLGASQRVGTD, for which, in assay [1], the “Rabbit serum linear peptides” value is listed as 0.2 and the “Rabbit serum looped peptides” value was determined as 0.3. Moreover, in assay [2], the “Binding of Control Serum Blood-Bank to Looped peptides of the protein M of SARS-CoV Urbani” value was 0.7, the “Binding of Control serum Blood-bank to linear peptides of the protein M of SARS-CoV Urbani” value worked out at 0.8, the “Binding of Control serum LUMC to linear peptides of the protein M of SARS-CoV Urbani” value is given as 0.8 and the “Binding of Control serum LUMC to looped peptides of the protein M of SARS-CoV Urbani” value is 0.7.
LVKDPPNVQIHTIDG: in assay [1], the “Binding of a rabbit serum to linear peptides” value worked out at 0.1 and the “Binding of a rabbit serum to looped peptides” value turned out to be 0.5. Moreover, in assay [2], the “Binding of Control Serum Blood-Bank to Looped peptides” value came out at 0.6, the “Binding of Control serum Blood-bank to linear peptides” value was determined as 0.4, the “Binding of Control serum LUMC to linear peptides” value was 0.4 and the “Binding of Control serum LUMC to looped peptides” value worked out at 0.7.
As for LVKPTVYVYSRVKNL, in assay [1], the “Binding of a rabbit serum to linear peptides” value was determined as 0.6 and the “Binding of a rabbit serum to looped peptides” value is listed as 0.9. Also, in assay [2], the “Binding of Control Serum Blood-Bank to Looped peptides” value is 0.7, the “Binding of Control serum Blood-bank to linear peptides” value is 0.8, the “Binding of Control serum LUMC to linear peptides” value was determined as 0.4 and the “Binding of Control serum LUMC to looped peptides” value stood at 0.7.
For MADNGTITVEELKQL, the “Recognition of the peptide by the rabbit serum” value in assay [1] was “recognized”. Besides, in assay [2], the “Binding of Control Serum Blood-Bank to Looped peptides of the protein M of SARS-CoV Urbani” value was determined as 0.4, the “Binding of Control serum Blood-bank to linear peptides of the protein M of SARS-CoV Urbani” value stood at 0.5, the “Binding of Control serum LUMC to linear peptides of the protein M of SARS-CoV Urbani” value is reported as 0.6 and the “Binding of Control serum LUMC to looped peptides of the protein M of SARS-CoV Urbani” value is given as 0.6.
As for MAGHPLGRCDIKDLP, in assay [1], the “Rabbit serum linear peptides” value is recorded as 0.4 and the “Rabbit serum looped peptides” value is 0.3. In assay [2], the “Binding of Control Serum Blood-Bank to Looped peptides of the protein M of SARS-CoV Urbani” value is listed as 0.5, the “Binding of Control serum Blood-bank to linear peptides of the protein M of SARS-CoV Urbani” value was found to be 0.7, the “Binding of Control serum LUMC to linear peptides of the protein M of SARS-CoV Urbani” value is listed as 0.5 and the “Binding of Control serum LUMC to looped peptides of the protein M of SARS-CoV Urbani” value is given as 0.5.
Turning to MRTFRIAIWNLDVII, in assay [1], the “Rabbit serum linear peptides” value is listed as 0.3 and the “Rabbit serum looped peptides” value is listed as 0.4. In assay [2], the “Binding of Control Serum Blood-Bank to Looped peptides of the protein X3 of SARS-CoV Urbani” value turned out to be 0.8, the “Binding of Control serum Blood-bank to linear peptides of the protein X3 of SARS-CoV Urbani” value stood at 0.7, the “Binding of Control serum LUMC to linear peptides of the protein X3 of SARS-CoV Urbani” value came out at 0.6 and the “Binding of Control serum LUMC to looped peptides of the protein X3 of SARS-CoV Urbani” value is given as 0.8.
For NCQDPAGGALIARCW, in assay [1], the “Rabbit serum linear peptides” value was 0.5 and the “Rabbit serum looped peptides” value is 0.5. In assay [2], the “Binding of Control Serum Blood-Bank to Looped peptides” value is 0.8, the “Binding of Control serum Blood-bank to linear peptides” value stood at 0.6, the “Binding of Control serum LUMC to linear peptides” value was 0.3 and the “Binding of Control serum LUMC to looped peptides” value stood at 0.6.
In the case of NIVNVSLVKPTVYVY, in assay [1], the “Binding of a rabbit serum to linear peptides” value amounted to 0.5 and the “Binding of a rabbit serum to looped peptides” value came out at 0.6. In assay [2], the “Binding of Control Serum Blood-Bank to Looped peptides” value is on record as 0.6, the “Binding of Control serum Blood-bank to linear peptides” value is 0.6, the “Binding of Control serum LUMC to linear peptides” value stood at 0.4 and the “Binding of Control serum LUMC to looped peptides” value worked out at 0.8.
With NKLVKDPPNVQIHTI, in assay [1], the “Binding of a rabbit serum to linear peptides” value is recorded as 0.1 and the “Binding of a rabbit serum to looped peptides” value is recorded as 0.6. In addition, in assay [2], the “Binding of Control Serum Blood-Bank to Looped peptides” value is 0.8, the “Binding of Control serum Blood-bank to linear peptides” value is 1.0, the “Binding of Control serum LUMC to linear peptides” value came out at 0.9 and the “Binding of Control serum LUMC to looped peptides” value amounted to 0.9.
Turning to NPAMDPIYDEPTTTT, in assay [1], the “Binding of a rabbit serum to linear peptides” value came out at 0.1 and the “Binding of a rabbit serum to looped peptides” value was determined as 0.3. Also, in assay [2], the “Binding of Control Serum Blood-Bank to Looped peptides” value is 0.4, the “Binding of Control serum Blood-bank to linear peptides” value was found to be 0.4, the “Binding of Control serum LUMC to linear peptides” value amounted to 0.3 and the “Binding of Control serum LUMC to looped peptides” value is 0.4.
As for NTDHAGSNDNIALLV, in assay [1], the “Rabbit serum linear peptides” value came to 0.4 and the “Rabbit serum looped peptides” value came to 0.4. Also, in assay [2], the “Binding of Control Serum Blood-Bank to Looped peptides of the protein M of SARS-CoV Urbani” value came to 1.0, the “Binding of Control serum Blood-bank to linear peptides of the protein M of SARS-CoV Urbani” value turned out to be 0.8, the “Binding of Control serum LUMC to linear peptides of the protein M of SARS-CoV Urbani” value is listed as 0.5 and the “Binding of Control serum LUMC to looped peptides of the protein M of SARS-CoV Urbani” value worked out at 0.9.
As for NVTINCQDPAGGALI, in assay [1], the “Rabbit serum linear peptides” value is recorded as 0.6 and the “Rabbit serum looped peptides” value came to 0.5. In addition, in assay [2], the “Binding of Control Serum Blood-Bank to Looped peptides” value was found to be 0.7, the “Binding of Control serum Blood-bank to linear peptides” value came out at 0.8, the “Binding of Control serum LUMC to linear peptides” value was found to be 0.6 and the “Binding of Control serum LUMC to looped peptides” value came out at 0.7.
